Assays:
[1] = tested on: A549; test: Cytotoxicity against human A549 cells incubated for 24 hrs measured 48 hrs post cell re-growth post compound dose by MTT assay; type: functional, cell-based
[2] = tested on: MCF7; test: Cytotoxicity against human MCF7 cells incubated for 24 hrs measured 48 hrs post cell re-growth post compound dose by MTT assay; type: functional, cell-based
[3] = tested on: HCT-15; test: Cytotoxicity against human HCT15 cells incubated for 24 hrs measured 48 hrs post cell re-growth post compound dose by MTT assay; type: functional, cell-based
[4] = Toxicity in iv dosed NOD.Cg-Prkdcscid Il2rgtmw/SzJ jax 005557 mouse assessed as maximum tolerated dose at 10 mg/kg, iv administered as weekly four doses starting at day 13 post-tumor grafting; type: organism-based; parameters: dose 10 mg/kg, route intravenous; details: in vivo
[5] = Toxicity in iv dosed NOD.Cg-Prkdcscid Il2rgtmw/SzJ jax 005557 mouse assessed as maximum tolerated dose at 10 mg/kg, iv administered as 5 doses every 4 days starting at day 9 post-tumor grafting; type: organism-based; parameters: dose 10 mg/kg, route intravenous; details: in vivo
[6] = tested on: HCT-15; test: Antitumor activity against human HCT15 cells xenografted in NOD.Cg-Prkdcscid Il2rgtmw/SzJ jax 005557 mouse assessed as tumor weight at 10 mg/kg, iv administered as 5 doses every 3 days starting at day 7 post-tumor grafting measured on day 25 relative to vehicle treated control; type: functional
[7] = tested on: Mus musculus; test: Toxicity in NOD.Cg-Prkdcscid Il2rgtmw/SzJ jax 005557 mouse xenografted with human HCT15 cells assessed as induction of toxic effect at 10 mg/kg, iv administered as 5 doses every 3 days starting at day 7 post-tumor grafting relative to vehicle treated control; type: organism-based, HCT-15; parameters: dose 10 mg/kg, route intravenous; details: in vivo, 72 h
[8] = tested on: Mus musculus; test: Toxicity in NOD.Cg-Prkdcscid Il2rgtmw/SzJ jax 005557 mouse xenografted with human MCF7 cells assessed as induction of toxic effect at 10 mg/kg, iv administered as weekly four doses starting at day 13 post-tumor grafting relative to vehicle treated control; type: organism-based; parameters: dose 10 mg/kg, route intravenous; details: in vivo
[9] = tested on: MCF7; test: Antitumor activity against human MCF7 cells xenografted in NOD.Cg-Prkdcscid Il2rgtmw/SzJ jax 005557 mouse assessed as tumor weight at 10 mg/kg, iv administered as 5 doses every 4 days starting at day 9 post-tumor grafting measured on day 45 relative to vehicle treated control; type: functional
[10] = tested on: Mus musculus; test: Toxicity in NOD.Cg-Prkdcscid Il2rgtmw/SzJ jax 005557 mouse xenografted with human MCF7 cells assessed as induction of toxic effect at 10 mg/kg, iv administered as 5 doses every 4 days starting at day 9 post-tumor grafting relative to vehicle treated control; type: organism-based; parameters: dose 10 mg/kg, route intravenous; details: in vivo, 96 h
[11] = tested on: Mus musculus; test: Toxicity in NOD.Cg-Prkdcscid Il2rgtmw/SzJ jax 005557 mouse xenografted with human MCF7 cells assessed as weight loss at 10 mg/kg, iv administered as 5 doses every 4 days starting at day 9 post-tumor grafting relative to vehicle treated control; type: organism-based; parameters: dose 10 mg/kg, route intravenous; details: in vivo, 96 h
[12] = tested on: Mus musculus; test: Toxicity in NOD.Cg-Prkdcscid Il2rgtmw/SzJ jax 005557 mouse xenografted with human MCF7 cells assessed as mortality incidence at 10 mg/kg, iv administered as 5 doses every 4 days starting at day 9 post-tumor grafting relative to vehicle treated control; type: organism-based; parameters: dose 10 mg/kg, route intravenous; details: in vivo, 96 h
[13] = tested on: Mus musculus; test: Toxicity in NOD.Cg-Prkdcscid Il2rgtmw/SzJ jax 005557 mouse xenografted with human HCT15 cells assessed as weight loss at 10 mg/kg, iv administered as 5 doses every 3 days starting at day 7 post-tumor grafting relative to vehicle treated control; type: organism-based, HCT-15; parameters: dose 10 mg/kg, route intravenous; details: in vivo, 72 h
[14] = tested on: Mus musculus; test: Toxicity in NOD.Cg-Prkdcscid Il2rgtmw/SzJ jax 005557 mouse xenografted with human HCT15 cells assessed as mortality incidence at 10 mg/kg, iv administered as 5 doses every 3 days starting at day 7 post-tumor grafting relative to vehicle treated control; type: organism-based, HCT-15; parameters: dose 10 mg/kg, route intravenous; details: in vivo, 72 h
[15] = tested on: Mus musculus; test: Toxicity in NOD.Cg-Prkdcscid Il2rgtmw/SzJ jax 005557 mouse xenografted with human MCF7 cells assessed as weight loss at 10 mg/kg, iv administered as weekly four doses starting at day 13 post-tumor grafting relative to vehicle treated control; type: organism-based; parameters: dose 10 mg/kg, route intravenous; details: in vivo
[16] = tested on: MCF7; test: Antitumor activity against human MCF7 cells xenografted in NOD.Cg-Prkdcscid Il2rgtmw/SzJ jax 005557 mouse assessed as tumor weight at 10 mg/kg, iv administered as weekly four doses starting at day 13 post-tumor grafting measured on day 45 relative to vehicle treated control; type: functional
[17] = tested on: Mus musculus; test: Toxicity in NOD.Cg-Prkdcscid Il2rgtmw/SzJ jax 005557 mouse xenografted with human MCF7 cells assessed as mortality incidence at 10 mg/kg, iv administered as weekly four doses starting at day 13 post-tumor grafting relative to vehicle treated control; type: organism-based; parameters: dose 10 mg/kg, route intravenous; details: in vivo
[18] = Toxicity in iv dosed NOD.Cg-Prkdcscid Il2rgtmw/SzJ jax 005557 mouse assessed as maximum tolerated dose at 10 mg/kg, iv administered as 5 doses every 3 days starting at day 7 post-tumor grafting; type: organism-based; parameters: dose 10 mg/kg, route intravenous; details: in vivo

With `CCN1C[C@]2(COC)[C@H](O)C[C@H](OC)[C@]34C1[C@H]([C@H](OC)[C@H]23)[C@]1(OC(=O)CCCCC(=O)O)[C@H]2[C@@H](OC(=O)c3ccccc3)[C@](O)(C[C@H]24)[C@@H](OC)[C@@H]1O` the IC50 [1] was over 60 µM, the IC50 [2] was over 60 µM and the IC50 [3] was over 60 µM.
With `CCN1C[C@]2(COC)[C@H](O)C[C@H](OC)[C@]34C1[C@H]([C@H](OC)[C@H]23)[C@]1(OC(=O)CCC(=O)O)[C@H]2[C@@H](OC(=O)c3ccccc3)[C@](O)(C[C@H]24)[C@@H](OC)[C@@H]1O` the IC50 [1] was over 60 µM, the IC50 [2] was over 60 µM and the IC50 [3] was over 60 µM.
`CCN1C[C@]2(COC)[C@H](O)C[C@H](OC)[C@]34C1[C@H]([C@H](OC)[C@H]23)[C@]1(OC(=O)CCCC(=O)O)[C@H]2[C@@H](OC(=O)c3ccccc3)[C@](O)(C[C@H]24)[C@@H](OC)[C@@H]1O` showed an IC50 [1] of over 60 µM, an IC50 [2] of over 60 µM and an IC50 [3] of over 60 µM.
For `CCN1C[C@]2(COC)[C@H](O)C[C@H](OC)[C@]34C1[C@H]([C@H](OC)[C@H]23)[C@]1(OC(=O)CCCCCC(=O)O)[C@H]2[C@@H](OC(=O)c3ccccc3)[C@](O)(C[C@H]24)[C@@H](OC)[C@@H]1O`, the IC50 [1] was over 60 µM, the IC50 [2] was over 60 µM and the IC50 [3] was over 60 µM.
`CCN1C[C@]2(COC)[C@H](O)C[C@H](OC)[C@]34C1[C@H]([C@H](OC)[C@H]23)[C@]1(OC(=O)CCCCCCC(=O)O)[C@H]2[C@@H](OC(=O)c3ccccc3)[C@](O)(C[C@H]24)[C@@H](OC)[C@@H]1O` gave an IC50 [1] of over 60 µM, an IC50 [2] of over 60 µM and an IC50 [3] of over 60 µM.
Work on `CCN1C[C@]2(COC)[C@H](O)C[C@H](OC)[C@]34C1[C@H]([C@H](OC)[C@H]23)[C@]1(OC(=O)CCCCCCCC(=O)O)[C@H]2[C@@H](OC(=O)c3ccccc3)[C@](O)(C[C@H]24)[C@@H](OC)[C@@H]1O` yielded an IC50 [1] of over 60 µM, an IC50 [2] of over 60 µM and an IC50 [3] of over 60 µM.
For `CCN1C[C@]2(COC)[C@H](O)C[C@H](OC)[C@]34C1[C@H]([C@H](OC)[C@H]23)[C@]1(OC(=O)CCCCCCCCC(=O)O)[C@H]2[C@@H](OC(=O)c3ccccc3)[C@](O)(C[C@H]24)[C@@H](OC)[C@@H]1O`, the IC50 [1] was over 60 µM, the IC50 [2] was over 60 µM and the IC50 [3] was over 60 µM.
`CCN1C[C@]2(COC)[C@H](O)C[C@H](OC)[C@]34C1[C@H]([C@H](OC)[C@H]23)[C@]1(OC(=O)CCCCCCCCCC(=O)O)[C@H]2[C@@H](OC(=O)c3ccccc3)[C@](O)(C[C@H]24)[C@@H](OC)[C@@H]1O` showed an IC50 [1] of over 60 µM, an IC50 [2] of over 60 µM and an IC50 [3] of over 60 µM.
For `CCN1C[C@]2(COC)[C@H](O)C[C@H](OC)[C@]34C1[C@H]([C@H](OC)[C@H]23)[C@]1(OC(=O)CCC(=O)O[C@]23[C@H]5[C@@H](OC(=O)c6ccccc6)[C@](O)(C[C@H]5[C@@]56C7[C@@H]2[C@H](OC)[C@@H]5[C@](COC)(CN7CC)[C@H](O)C[C@@H]6OC)[C@@H](OC)[C@@H]3O)[C@H]2[C@@H](OC(=O)c3ccccc3)[C@](O)(C[C@H]24)[C@@H](OC)[C@@H]1O`, the IC50 [1] was over 60 µM, the IC50 [2] was over 60 µM and the IC50 [3] was over 60 µM.
`CCN1C[C@]2(COC)[C@H](O)C[C@H](OC)[C@]34C1[C@H]([C@H](OC)[C@H]23)[C@]1(OC(=O)CCCC(=O)O[C@]23[C@H]5[C@@H](OC(=O)c6ccccc6)[C@](O)(C[C@H]5[C@@]56C7[C@@H]2[C@H](OC)[C@@H]5[C@](COC)(CN7CC)[C@H](O)C[C@@H]6OC)[C@@H](OC)[C@@H]3O)[C@H]2[C@@H](OC(=O)c3ccccc3)[C@](O)(C[C@H]24)[C@@H](OC)[C@@H]1O` gave an IC50 [1] of over 60 µM, an IC50 [2] of over 60 µM and an IC50 [3] of over 60 µM.
With `CCN1C[C@]2(COC)[C@H](O)C[C@H](OC)[C@]34C1[C@H]([C@H](OC)[C@H]23)[C@]1(OC(=O)CCCCC(=O)O[C@]23[C@H]5[C@@H](OC(=O)c6ccccc6)[C@](O)(C[C@H]5[C@@]56C7[C@@H]2[C@H](OC)[C@@H]5[C@](COC)(CN7CC)[C@H](O)C[C@@H]6OC)[C@@H](OC)[C@@H]3O)[C@H]2[C@@H](OC(=O)c3ccccc3)[C@](O)(C[C@H]24)[C@@H](OC)[C@@H]1O` the IC50 [1] was over 60 µM, the IC50 [2] was over 60 µM and the IC50 [3] was over 60 µM.
For `CCN1C[C@]2(COC)[C@H](O)C[C@H](OC)[C@]34C1[C@H]([C@H](OC)[C@H]23)[C@]1(OC(=O)CCCCCC(=O)O[C@]23[C@H]5[C@@H](OC(=O)c6ccccc6)[C@](O)(C[C@H]5[C@@]56C7[C@@H]2[C@H](OC)[C@@H]5[C@](COC)(CN7CC)[C@H](O)C[C@@H]6OC)[C@@H](OC)[C@@H]3O)[C@H]2[C@@H](OC(=O)c3ccccc3)[C@](O)(C[C@H]24)[C@@H](OC)[C@@H]1O`, the IC50 [1] was 9.5 µM, the IC50 [2] was 7.56 µM and the IC50 [3] was 4.64 µM.
For `CCN1C[C@]2(COC)[C@H](O)C[C@H](OC)[C@]34C1[C@H]([C@H](OC)[C@H]23)[C@]1(OC(=O)CCCCCCC(=O)O[C@]23[C@H]5[C@@H](OC(=O)c6ccccc6)[C@](O)(C[C@H]5[C@@]56C7[C@@H]2[C@H](OC)[C@@H]5[C@](COC)(CN7CC)[C@H](O)C[C@@H]6OC)[C@@H](OC)[C@@H]3O)[C@H]2[C@@H](OC(=O)c3ccccc3)[C@](O)(C[C@H]24)[C@@H](OC)[C@@H]1O`, the MTD [4] was 15 mg/kg, the MTD at 96 h [5] was 15 mg/kg and the IC50 [1] was 7.53 µM. The T/C [6] was 49%, the Activity [7] was “Non-toxic” and the Activity [8] was “Non-toxic”. The T/C [9] was 36%, the Activity [10] was “Non-toxic” and the T/C [11] was 0%. The IC50 [2] was 6.9 µM, the Activity [12] was “Non-toxic” and the T/C [13] was 9.34%. The Activity [14] was “Non-toxic”, the T/C [15] was 0% and the T/C [16] was 56%. The IC50 [3] was 4.01 µM, the Activity [17] was “Non-toxic” and the MTD at 72 h [18] was 15 mg/kg.
For `CCN1C[C@]2(COC)[C@H](O)C[C@H](OC)[C@]34C1[C@H]([C@H](OC)[C@H]23)[C@]1(OC(=O)CCCCCCCC(=O)O[C@]23[C@H]5[C@@H](OC(=O)c6ccccc6)[C@](O)(C[C@H]5[C@@]56C7[C@@H]2[C@H](OC)[C@@H]5[C@](COC)(CN7CC)[C@H](O)C[C@@H]6OC)[C@@H](OC)[C@@H]3O)[C@H]2[C@@H](OC(=O)c3ccccc3)[C@](O)(C[C@H]24)[C@@H](OC)[C@@H]1O`, the IC50 [1] was 19.5 µM, the IC50 [2] was 16.9 µM and the IC50 [3] was 28 µM.
